The text below walks through data of PMC4848495, “Identification of a Potent and Broad-Spectrum Hepatitis C Virus Fusion Inhibitory Peptide from the E2 Stem Domain” (Scientific Reports, 2016).

Residues, ends and D or L forms follow the SMILES beside them.

Data set [1] deals with HCV glycoprotein E1E2-mediated membrane fusion (Hepatitis C virus genotype 1a, UniProt P27958). The experiment in a line: cell-based. The class given is cell-based, Hepatitis C virus (strain H77). Conditions: cell-cell fusion assay (Supplementary Fig. S3).
Chain of HCV glycoprotein E1E2-mediated membrane fusion (Hepatitis C virus genotype 1a, UniProt P27958) (P27958 384-746): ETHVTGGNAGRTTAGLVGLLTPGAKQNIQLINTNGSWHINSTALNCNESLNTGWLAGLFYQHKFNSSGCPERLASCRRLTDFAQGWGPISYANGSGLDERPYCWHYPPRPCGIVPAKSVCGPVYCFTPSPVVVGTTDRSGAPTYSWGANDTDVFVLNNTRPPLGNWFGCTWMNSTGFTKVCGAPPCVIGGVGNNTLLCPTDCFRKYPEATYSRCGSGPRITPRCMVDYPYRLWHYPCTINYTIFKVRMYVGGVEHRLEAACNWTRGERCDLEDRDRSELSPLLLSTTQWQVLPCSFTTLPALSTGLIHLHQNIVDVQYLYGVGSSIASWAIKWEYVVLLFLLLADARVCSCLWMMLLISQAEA
Chain of HCV glycoprotein E1E2-mediated membrane fusion (Hepatitis C virus genotype 1a, UniProt P27958) (P27958 192-383): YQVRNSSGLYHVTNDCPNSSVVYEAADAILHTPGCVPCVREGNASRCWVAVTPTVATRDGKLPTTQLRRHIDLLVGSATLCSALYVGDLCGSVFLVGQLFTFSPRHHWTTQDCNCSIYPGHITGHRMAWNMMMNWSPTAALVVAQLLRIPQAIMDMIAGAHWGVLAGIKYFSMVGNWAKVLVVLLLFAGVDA
The subject of data set [2] is HCV glycoprotein E1E2-mediated membrane fusion. Nature of the data set: cell-based. The class given is cell-based, Hepatitis C virus (strain H77).
The test system of data set [3] is Huh7.5.1 cells. Nature of the data set: Cytotoxicity assay (MTT). The class given is cell-based, human. As for the experimental part: Huh7.5.1 cells were treated with E27 for the indicated concentration and period of time. After removal of E27, cells were incubated for an additional 48 h in 24-well plates. Cytotoxicity was determined using the MTT Cell Viability Assay Kit from R&D Systems (Minneapolis, MN, USA).

The test system of data set [4] is JFH-1 HCVcc. Nature of the data set: Virus pre-treatment (virocidal) assay. Conditions: 1 μM, 2 h at 37 °C, unbound peptide removed by ultracentrifugation, then infection of Huh7.5.1 cells.
Source text: After removal of the unbound peptide, the viruses were resuspended and used to infect naïve Huh7.5.1 cells.
For data set [5], the system named is E1E2 heterodimer. Nature of the data set: E1E2 heterodimer analysis by native-PAGE / Western blotting. The class given is cell-based, Hepatitis C virus. The settings on record: E27 expressed from plasmid co-transfected with E1E2 in Huh7.5.1 cells, 24 h. The protocol: (§1) Figure 5 Effect of E27 on E1E2 heterodimerization. (a) Analysis of the E1E2 heterodimer by native-PAGE. A plasmid expressing the E27 peptide or a scramble control peptide was co-transfected into Huh7.5.1 cells with a plasmid encoding E1E2. The single E1 or E2 plasmid was used as the control. At 24 h post-transfection, cells were lysed for Western blotting using antibodies recognizing E1 or E2. (b,c) Interaction between the E27 and E1/E2 glycoproteins was determined by co-immunoprecipitation. A plasmid expressing Myc-tagged E27 was co-expressed with either Flag-tagged E1 (b) or Flag-tagged E2 (c). Cell lysates were immunoprecipitated with an anti-Flag antibody and detected with an anti-Myc antibody or an anti-E1- or E2 antibody. The empty Flag vector was used as a negative control.
(§2) For cell lysate preparation, monolayer cells were lysed on ice with lysis buffer supplemented with protease inhibitor cocktail (Sigma or Pierce). After electrophoresis, the separated proteins were transferred onto a nitrocellulose membrane (Bio-Rad, Hercules, CA), blocked with 10% milk for 1 h, and incubated with the primary antibody overnight at 4 °C. The secondary antibody used was a 1:2000 dilution of HRP-linked anti-IgG. The ECL reagent (Amersham Biosciences, Piscataway, NJ) was used as the substrate for detection. […]
On the technique in general: Immunoblotting shows a protein as a band on a membrane.

Data set [6] deals with HCV full-length genotype 1b replicon-containing cell line (2-3+). The class given is cell-based, Hepatitis C virus. The settings on record: replicon cells, 1 μM, 48 h. (In general: Replicon systems follow genome replication, usually without infectious particles.)
Data set [7] deals with CLDN1, OCLND, CD81 and SR-BI in Huh7 cells. The experiment in a line: Co-receptor expression and localization (immunofluorescence, Western blotting). The class given is cell-based, human. Conditions: 1 μM 24 h (staining), 0, 0.1, 1 or 5 μM (Western blotting). As for the experimental part: Figure 4 E27 affects neither HCV co-receptor localization nor expression levels. (a) DMSO and E27 (1 μM) were added to Huh7 cells and allowed to incubate for 24 h. CLDN1, OCLND, CD81 and SR-BI were stained with corresponding antibodies (green), and nuclei (blue) were stained with DAPI. (b) Huh7 cells were treated with 0, 0.1, 1 or 5 μM of E27, and the expression levels of CLDN1, OCLND, CD81 and SR-BI were analyzed by Western blotting. The expression of β-actin was also analyzed as a loading control.
Immunostaining of Huh7 cells was performed using antibodies against CLDN1, OClD, SR-BI or CD81 as previously descriped. Images were captured on a Leica SPW5 confocal microscope. Nucleus was stained with DAPI.
as §2, with “detection. For immunoprecipitation-coupled Western blotting, cleared cell lysates were immunoprecipitated with anti-FLAG M2 affinity resin (Sigma) and washed with lysis buffer.” for “detection.”

For data set [8], the system named is VSV-G-pseudotyped lentivirus. The class given is cell-based.
Data set [9] has as its system E1/E2 glycoproteins. The experiment in a line: Co-immunoprecipitation of E27 with E1 or E2. The class given is binding, Hepatitis C virus. The settings on record: Myc-tagged E27 co-expressed with Flag-tagged E1 or E2, anti-Flag immunoprecipitation. As for the experimental part:
as §1, §2

For data set [10], the system named is HCV entry into Huh7.5.1 cells. Nature of the data set: Time-of-addition assays. The class given is cell-based, Hepatitis C virus. Conditions: 1 μM. The protocol: Next, to further corroborate that E27 targets HCV fusion, we sought to define the steps of HCV cell entry targeted by E27. […] In addition, we added E27 to Huh7.5.1 cells at different time intervals during the early phase of HCV infection. Three different time-points assays were conducted: cells were exposed to HCV for 1 h at 4 °C (attachment/binding period). Virus was removed, and the cells were washed with serum-free medium and incubated at 4 °C for another 1 h (postattachment/binding period). The cells were then washed and incubated for 1 h at 37 °C (endocytosis/fusion period). Finally, the cells were washed and incubated in 10% FBS-containing culture medium for 24 h, E27 was added at one of these steps. […] Moreover, we compared inhibitory kinetics between E27 and bafilomycin A1, a well-recognized inhibitor of fusion during virus infection.
Huh7.5.1 cells were seeded at 8 × 10^4 cells/well in 24-well plates. The next day, virus inoculum was added to the plates, which were then incubated at 4 °C for 1 h. Unbound virus was removed by 3 washes with cold medium. The cells were then shifted to 37 °C and incubated. The specified inhibitors were added at specific time points during infection and were either removed by washing after two hours or added back as described in the Figure legends. Firefly luciferase activity was quantified at 48 h post-infection. The experiments were performed in triplicate.

In data set [11] the test system is HCVpp packaged with E1E2 from genotypes 1–6. Nature of the data set: HCVpp entry assay. The class given is cell-based, Hepatitis C virus. Conditions: HCVpp system and HCVcc system (Fig. 8A,B).

As usually defined, the CC50 is the concentration that lowers cell viability or growth by half. With `CC[C@H](C)[C@H](NC(=O)[C@H](CC(C)C)NC(=O)CNC(=O)[C@@H](NC(=O)[C@H](CO)NC(=O)[C@H](CC(C)C)NC(=O)[C@H](C)NC(=O)[C@@H]1CCCN1C(=O)[C@H](CC(C)C)NC(=O)[C@@H](NC(=O)[C@@H](NC(=O)[C@H](Cc1ccccc1)NC(=O)[C@H](CO)NC(=O)[C@H](CS)NC(=O)[C@@H]1CCCN1C(=O)[C@H](CC(C)C)NC(=O)[C@@H](NC(=O)[C@H](CCC(N)=O)NC(=O)[C@H](Cc1c[nH]c2ccccc12)NC(=O)[C@@H](N)CCC(N)=O)C(C)C)[C@@H](C)O)[C@@H](C)O)[C@@H](C)O)C(=O)N[C@@H](Cc1c[nH]cn1)C(=O)N[C@@H](CC(C)C)C(=O)N[C@@H](Cc1c[nH]cn1)C(=O)N[C@@H](CCC(N)=O)C(=O)N[C@@H](CC(N)=O)C(=O)N[C@H](C(=O)N[C@H](C(=O)N[C@@H](CC(=O)O)C(=O)N[C@H](C(=O)N[C@@H](CCC(N)=O)C(=O)N[C@@H](Cc1ccc(O)cc1)C(=O)N[C@@H](CC(C)C)C(=O)N[C@@H](Cc1ccc(O)cc1)C(=O)NCC(=O)N[C@H](C(=O)O)C(C)C)C(C)C)C(C)C)[C@@H](C)CC` [E27] (H-QWQVLPCSFTTLPALSTGLIHLHQNIVDVQYLYGV-OH; N-terminus and C-terminus assumed), the “suppression of wild-type E1E2-mediated fusion” value in data set [1] is “efficiently suppressed”. The “susceptibility of E1-1 and E1-9 mutated E1E2 to E27 in the fusion assay” value in [2] was “markedly increased resistance”. In [3], this compound yielded a CC50 of 180.3 µM. For the same compound, the “virocidal effect on HCV” value in data set [4] is on record as “no virocidal effect”. Moreover, in [5], the “effect on E1E2 heterodimers” value is given as “significant decrease”. In data set [6] (Western blotting), the “effect on intracellular HCV core protein level” value is reported as “no impact”. Further, the “effect on HCV RNA replication” value in [6] (qRT-PCR) is listed as “no impact”. In addition, the “effect on subcellular distribution and expression of co-receptors” value in data set [7] was “no detectable effect”. Besides, the “inhibition of entry of VSV-G–pseudotyped lentivirus” value in data set [8] is on record as “did not inhibit”. For the same compound, in data set [9], the “interaction with E1 or E2” value was “neither E1 nor E2 interact independently with E27”. In data set [10] (1 h at 4 °C), the “inhibition when added during the attachment or binding step” value was “no inhibition was observed”. Further, in data set [10] (HCVpp, Huh7.5.1 cells, luciferase at 48 h), the “inhibition when added together with the virus or within 2 h of infection” value is “best inhibitory activity”. Also, in [10] (added 2 or 4 h prior to HCVpp inoculation and removed, luciferase at 48 h), the “inhibition when added prior to infection” value is on record as “no inhibition was observed”. For the same compound, the “inhibition of HCV infection when added during the late entry step” value in data set [10] (endocytosis/fusion period, 1 h at 37 °C) is “strong inhibition”.

On to “CSFTTLP ALSTGLIHLHQNIVDVQYLYGV [E27-2, E27 shortened by 6 aa from the N-terminus, residues 7-35]”, for which, in data set [11], the “antiviral activity compared to the parental peptide” value is reported as “slightly increased”.
